# ChEMBL document CHEMBL1148021, “(Arylpiperazinyl)cyclohexylsufonamides: discovery of alpha(1a/1d)-selective adrenergic receptor antagonists for the treatment of Benign Prostatic Hyperplasia/Lower Urinary Tract Symptoms (BPH/LUTS)” (Bioorg Med Chem Lett, 2007)
# Target: D(2) dopamine receptor (Homo sapiens, UniProt P14416)
# Experiment: Binding affinity to human dopamine D2 receptor
# D(2) dopamine receptor, sequence (P14416 whole entry): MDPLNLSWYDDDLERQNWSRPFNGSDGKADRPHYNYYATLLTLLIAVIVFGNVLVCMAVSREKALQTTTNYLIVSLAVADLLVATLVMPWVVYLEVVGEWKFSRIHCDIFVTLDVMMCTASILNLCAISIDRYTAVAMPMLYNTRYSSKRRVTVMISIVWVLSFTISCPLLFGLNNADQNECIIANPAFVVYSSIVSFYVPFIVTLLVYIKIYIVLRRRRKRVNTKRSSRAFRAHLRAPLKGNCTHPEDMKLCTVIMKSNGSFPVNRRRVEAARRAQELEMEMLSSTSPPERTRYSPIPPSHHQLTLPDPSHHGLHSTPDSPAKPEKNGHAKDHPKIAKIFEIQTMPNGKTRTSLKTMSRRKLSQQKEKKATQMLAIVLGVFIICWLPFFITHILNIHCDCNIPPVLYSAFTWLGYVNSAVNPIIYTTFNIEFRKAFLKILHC
row,Compound,Ki [nM]
1,CC(C)Oc1ccccc1N1CCN([C@H]2CC[C@H](NS(=O)(=O)c3cccc(C(F)(F)F)c3)CC2)CC1,39
2,COc1ccc(OC)c(S(=O)(=O)N[C@H]2CC[C@H](N3CCN(c4ccccc4OC(C)C)CC3)CC2)c1,62
3,COc1ccc(C(F)(F)F)cc1S(=O)(=O)N[C@H]1CC[C@@H](N2CCN(c3ccccc3OC(C)C)CC2)CC1,194
4,CC(C)Oc1ccccc1N1CCN([C@H]2CC[C@H](NS(=O)(=O)Cc3ccccc3)CC2)CC1,71
5,CC(C)Oc1ccccc1N1CCN([C@H]2CC[C@@H](NS(=O)(=O)c3cccnc3)CC2)CC1,15
6,CC(C)Oc1ccccc1N1CCN([C@H]2CC[C@@H](NS(=O)(=O)c3ccc(S(C)(=O)=O)cc3)CC2)CC1,122
7,CC(C)Oc1ccccc1N1CCN([C@H]2CC[C@@H](NS(=O)(=O)c3ccc(Cl)cc3Cl)CC2)CC1,42
8,CC(C)Oc1ccccc1N1CCN([C@H]2CC[C@@H](NS(=O)(=O)c3ccccc3)CC2)CC1,191
9,COc1ccc(F)cc1S(=O)(=O)N[C@H]1CC[C@H](N2CCN(c3ccccc3OC(C)C)CC2)CC1,139
10,CC(C)Oc1ccccc1N1CCN([C@H]2CC[C@H](NS(=O)(=O)c3ccc(OC(F)(F)F)cc3)CC2)CC1,58
11,CC(C)Oc1ccccc1N1CCN([C@H]2CC[C@H](NS(=O)(=O)c3ccc(Cl)cc3Cl)CC2)CC1,76
12,CC(C)Oc1ccccc1N1CCN([C@H]2CC[C@H](NS(=O)(=O)c3cccc(Cl)c3F)CC2)CC1,271
13,COc1ccc([N+](=O)[O-])cc1S(=O)(=O)N[C@H]1CC[C@@H](N2CCN(c3ccccc3OC(C)C)CC2)CC1,45

# The remaining compounds from weak to strong by Ki, led by results:
row,Ki [nM],Compound
1,173,COc1ccc(F)cc1S(=O)(=O)N[C@H]1CC[C@@H](N2CCN(c3ccccc3OC(C)C)CC2)CC1
2,130,CC(C)Oc1ccccc1N1CCN([C@H]2CC[C@@H](NS(=O)(=O)c3ccc(Cl)cc3F)CC2)CC1
3,118,CC(C)Oc1ccccc1N1CCN([C@H]2CC[C@@H](NS(=O)(=O)c3cccc(C(F)(F)F)c3)CC2)CC1
4,92,COc1ccncc1S(=O)(=O)N[C@H]1CC[C@@H](N2CCN(c3ccccc3OC(C)C)CC2)CC1
5,80,CC(C)Oc1ccccc1N1CCN([C@H]2CC[C@H](NS(=O)(=O)c3cnc(Cl)c(Br)c3)CC2)CC1
6,78,COc1ccc(Cl)cc1S(=O)(=O)N[C@H]1CC[C@H](N2CCN(c3ccccc3OC(C)C)CC2)CC1
7,69,CC(C)Oc1ccccc1N1CCN([C@H]2CC[C@@H](NS(=O)(=O)c3ccc(F)cc3)CC2)CC1
8,62,COc1ccc(S(=O)(=O)N[C@H]2CC[C@H](N3CCN(c4ccccc4OC(C)C)CC3)CC2)cc1OC
9,61,CC(C)Oc1ccccc1N1CCN([C@H]2CC[C@@H](NS(=O)(=O)c3cnc(Cl)c(Br)c3)CC2)CC1
10,55,CC(C)Oc1ccccc1N1CCN([C@H]2CC[C@H](NS(=O)(=O)c3cccnc3)CC2)CC1
11,52,Cc1ccc(S(=O)(=O)N[C@H]2CC[C@H](N3CCN(c4ccccc4OC(C)C)CC3)CC2)cc1Cl
12,50,COc1ccc(C)cc1S(=O)(=O)N[C@H]1CC[C@H](N2CCN(c3ccccc3OC(C)C)CC2)CC1
13,43,COc1ccncc1S(=O)(=O)N[C@H]1CC[C@H](N2CCN(c3ccccc3OC(C)C)CC2)CC1
14,42,CC(C)Oc1ccccc1N1CCN([C@H]2CC[C@H](NS(=O)(=O)c3ccc(Cl)cc3F)CC2)CC1
15,37,COc1ccc(Br)cc1S(=O)(=O)N[C@H]1CC[C@@H](N2CCN(c3ccccc3OC(C)C)CC2)CC1
16,36,COc1ccc(Br)cc1S(=O)(=O)N[C@H]1CC[C@H](N2CCN(c3ccccc3OC(C)C)CC2)CC1
17,27,CC(C)Oc1ccccc1N1CCN([C@H]2CC[C@H](NS(=O)(=O)c3ccc(F)cc3)CC2)CC1
18,24,CC(C)Oc1ccccc1N1CCN([C@H]2CC[C@@H](NS(=O)(=O)Cc3ccccc3)CC2)CC1
19,18,COc1ccc([N+](=O)[O-])cc1S(=O)(=O)N[C@H]1CC[C@H](N2CCN(c3ccccc3OC(C)C)CC2)CC1
20,14,CC(C)Oc1ccccc1N1CCN([C@H]2CC[C@H](NS(=O)(=O)c3ccc(S(C)(=O)=O)cc3)CC2)CC1
